Assay results from patent US10501464B2, “7-oxo-6-(sulfooxy)-1,6-diazabicyclo[3.2.1]octane-2-carboxamide containing compounds and their use in treating bacterial infections” (WOCKHARDT LIMITED, priority 2015, dated 2019).
Where a name gives a salt, the structure may show the parent alone. Read-outs that look alike come from different tables or passages of the source.

Assays:
Test in all cases: Antibacterial activity, MIC by agar dilution (CLSI)
Format in all cases: cell-based
E. coli 7 MP = details: compound tested alone
Protocol: (§1) The biological activity of representative compounds according to the invention against various bacterial strains was investigated. In a typical study, overnight grown bacterial cultures were diluted appropriately and inoculated on the agar media containing doubling dilutions of the test compounds. Observations for growth or no growth was performed after 16-20 hours of incubation at 35±2° C. in the ambient air. The overall procedure was performed as per Clinical and Laboratory Standards Institute (CLSI) recommendations, (Clinical and Laboratory Standards Institute (CLSI), Performance Standards for Antimicrobial Susceptibility Testing, 20th Informational Supplement, M07-A9, Volume 32, No. 2, 2012). Molten Mueller Hinton Agar (BD, USA) containing serial dilutions of each antibacterial agent were poured on to the plates and allowed to solidify. Appropriate suspensions from the freshly grown cultures were prepared in normal saline so that about 10^4CFU/spot of the organism was delivered on to the drug containing agar plates using automated multipoint inoculator (Mast, UK). The plates were incubated in Biochemical oxygen demand (BOD) incubator at 37° C. for 18 hours and then examined for growth.
(§2) Method for the determination of MIC: The Minimum Inhibitory Concentration (MIC) determination for the combinations was carried out in Muller Hinton Agar (MHA) (BD, USA) according to Clinical and Laboratory Standards Institute (CLSI) recommendations, (Clinical and Laboratory Standards Institute (CLSI), Performance Standards for Antimicrobial Susceptibility Testing, 20th Informational Supplement, M 100-S20, Volume 30, No. 1, 2010). In short, the test strains were adjusted to deliver about 10^4CFU per spot with a multipoint inoculator (Applied Quality Services, UK). The plates were poured with MHA containing doubling concentration range of representative compounds according to present invention. The plates were inoculated and were incubated at 35° C. for 18 hour. […] The Table 2 depicts the antibacterial activity profile of compounds according to present invention against various multidrug resistant bacterial strains.

E. coli M 138 = details: compound tested alone
Protocol: as §1, §2

K. pneumoniae H 522 = details: compound tested alone
Protocol: as §1, §2

K. pneumoniae H 525 = details: compound tested alone
Protocol: as §1, §2

[1] = system: K. pneumoniae ATCC 700603
Protocol: as §1, §2

K. pneumoniae H 521 = details: compound tested alone
Protocol: as §1, §2

K. pneumoniae H 523 = details: compound tested alone
Protocol: as §1, §2

E. coli 13353 = details: compound tested alone
Protocol: as §1, §2

E. coli M 36 = details: compound tested alone
Protocol: as §1, §2

E. coli 13352 = details: compound tested alone
Protocol: as §1, §2

E. coli M 49 = details: compound tested alone
Protocol: as §1, §2

E. coli 13351 = details: compound tested alone
Protocol: as §1, §2

E. coli M 50 = details: compound tested alone
Protocol: as §1, §2

P. mirabilis S 137B = details: compound tested alone
Protocol: as §1, §2

[2] = Escherichia coli, 7MP, read-out: MIC
[3] = Escherichia coli, M138, E. coli M 138, read-out: MIC
[4] = Klebsiella pneumoniae, H522, K. pneumoniae H 522, read-out: MIC
[5] = Klebsiella pneumoniae, H525, K. pneumoniae H 525, read-out: MIC
[6] = Klebsiella pneumoniae, ATCC700603, compound tested alone, read-out: MIC
[7] = Klebsiella pneumoniae, H521, K. pneumoniae H 521, read-out: MIC
[8] = Klebsiella pneumoniae, H523, K. pneumoniae H 523, read-out: MIC
[9] = Escherichia coli, 13353, E. coli 13353, read-out: MIC
[10] = Escherichia coli, M36, E. coli M 36, read-out: MIC
[11] = Escherichia coli, 13352, E. coli 13352, read-out: MIC
[12] = Escherichia coli, M49, E. coli M 49, read-out: MIC
[13] = Escherichia coli, 13351, E. coli 13351, read-out: MIC
[14] = Escherichia coli, M50, E. coli M 50, read-out: MIC
[15] = Proteus mirabilis, S137B, read-out: MIC

SMILES	MIC (E. coli 7 MP; [2]) [µg/mL]	MIC (E. coli M 138; [3]) [µg/mL]	MIC (K. pneumoniae H 522; [4]) [µg/mL]	MIC (K. pneumoniae H 525; [5]) [µg/mL]	MIC [1, 6] [µg/mL]	MIC (K. pneumoniae H 521; [7]) [µg/mL]	MIC (K. pneumoniae H 523; [8]) [µg/mL]	MIC (E. coli 13353; [9]) [µg/mL]	MIC (E. coli M 36; [10]) [µg/mL]	MIC (E. coli 13352; [11]) [µg/mL]	MIC (E. coli M 49; [12]) [µg/mL]	MIC (E. coli 13351; [13]) [µg/mL]	MIC (E. coli M 50; [14]) [µg/mL]	MIC (P. mirabilis S 137B; [15]) [µg/mL]	other results
O=C(NNC(=O)[C@@H]1CC[C@@H]2CN1C(=O)N2OS(=O)(=O)O)[C@@H]1C[C@H](n2ccnc2)CN1 [Example 30]	16	8	2	2	> 32	2	2	4	4	8	16	4	4	> 32	
O=C(NOC[C@@H]1C[C@H](n2ccnn2)CN1)[C@@H]1CC[C@@H]2CN1C(=O)N2OS(=O)(=O)O [Example 6]	4	1	2	2	> 32	2	2	1	1	2	8	2	1	> 32	
O=C(NNC(=O)[C@@H]1CC[C@@H]2CN1C(=O)N2OS(=O)(=O)O)C1C[C@H](n2cccn2)CN1 (some centres unmarked) [Example 27]	8	2	4	4	> 32	4	4	1	1	1	> 32	1	1	> 32	
O=C(NOCC1C[C@H](N2CCCCC2)CN1)[C@@H]1CC[C@@H]2CN1C(=O)N2OS(=O)(=O)O (some centres unmarked) [Example 18]	4	2	2	2	> 32	2	2	1	2	2	16	2	2		
CN1CCN([C@H]2CNC(CONC(=O)[C@@H]3CC[C@@H]4CN3C(=O)N4OS(=O)(=O)O)C2)CC1 (some centres unmarked) [Example 21]	16	4	4	8	> 32	8	4	4	4	8	16	8	8		
O=C(NOCC1C[C@@H](N2CCCCC2)CN1)[C@@H]1CC[C@@H]2CN1C(=O)N2OS(=O)(=O)O (some centres unmarked) [Example 19]	> 32	8	8	8	> 32	8	8	4	8	8	32	8	8		
O=C(NOC[C@@H]1C[C@H](n2nccn2)CN1)[C@@H]1CC[C@@H]2CN1C(=O)N2OS(=O)(=O)O [Example 5]	2	1	4	4	> 32	4	4	1	1	1	8	1	1	> 32	
O=C(NOC[C@@H]1C[C@H](n2ncnn2)CN1)[C@@H]1CC[C@@H]2CN1C(=O)N2OS(=O)(=O)O [Example 1, (2S,5R)-N-{[(2S,4S)-4-(2H-tetrazol-2-yl)pyrrolidin-2-yl]methyloxy}-7-oxo-6-(sulfooxy)-1,6-diazabicyclo[3.2.1]octane-2-carboxamide]	8	4	4	4	> 32	4	4	2	1	4	16	4	2	> 32	
O=C(NOC[C@@H]1CC(n2cccn2)CN1)[C@@H]1CC[C@@H]2CN1C(=O)N2OS(=O)(=O)O (some centres unmarked) [Example 8]	2	1	1	1	> 32	1	1	0.5	0.5	1	4	1	1	> 32	
O=C(NOC[C@H]1C[C@H](N2CCOCC2)CN1)[C@@H]1CC[C@@H]2CN1C(=O)N2OS(=O)(=O)O [Example 2, Trifluoro acetic acid salt of (2S,5R)-N-{[(2R,4S)-4-(morpholin-4-yl)pyrrolidin-2-yl]methoxy}-7-oxo-6-(sulfooxy)-1,6-diazabicyclo[3.2.1]octane-2-carboxamide]	2	1	1	1	> 32	1	1	1	1	1	4	1	1		
O=C(NOCC1C[C@@H](N2CCNCC2)CN1)[C@@H]1CC[C@@H]2CN1C(=O)N2OS(=O)(=O)O (some centres unmarked) [Example 20]	16	4	8	8	> 32	8	8	8	4	16	16	8	8		
O=C(NOCC1C[C@H](N2CCOCC2)CN1)[C@@H]1CC[C@@H]2CN1C(=O)N2OS(=O)(=O)O (some centres unmarked) [Example 17]	16	4	8	8	> 32	8	8	4	4	8	16	8	8		
CN1CCN([C@H]2CNC(CONC(=O)[C@@H]3CC[C@@H]4CN3C(=O)N4OS(=O)(=O)O)C2)CC1 (some centres unmarked) [Example 22]															MIC (E. coli 7 MP): 16 µg/mL; MIC (E. coli M 138; E. coli M 138): 8 µg/mL; MIC (K. pneumoniae H 522; K. pneumoniae H 522): 8 µg/mL; MIC (K. pneumoniae H 525; K. pneumoniae H 525): 8 µg/mL; MIC ([1]; compound tested alone): >32 µg/mL; MIC (K. pneumoniae H 521; K. pneumoniae H 521): 8 µg/mL; MIC (K. pneumoniae H 523; K. pneumoniae H 523): 8 µg/mL; MIC (E. coli 13353; E. coli 13353): 4 µg/mL; MIC (E. coli M 36; E. coli M 36): 4 µg/mL; MIC (E. coli 13352; E. coli 13352): 16 µg/mL; MIC (E. coli M 49; E. coli M 49): 8 µg/mL; MIC (E. coli 13351; E. coli 13351): 8 µg/mL; MIC (E. coli M 50; E. coli M 50): 8 µg/mL
O=C(NNC(=O)[C@@H]1CC[C@@H]2CN1C(=O)N2OS(=O)(=O)O)C1C[C@H](n2ccnc2)CN1 (some centres unmarked) [Example 34]															MIC (E. coli 7 MP): 16 µg/mL; MIC (K. pneumoniae H 522; K. pneumoniae H 522): 8 µg/mL; MIC (K. pneumoniae H 525; K. pneumoniae H 525): 8 µg/mL; MIC ([1]; compound tested alone): >32 µg/mL; MIC (K. pneumoniae H 521; K. pneumoniae H 521): 8 µg/mL; MIC (K. pneumoniae H 523; K. pneumoniae H 523): 8 µg/mL; MIC (E. coli 13353; E. coli 13353): 4 µg/mL; MIC (E. coli M 36; E. coli M 36): 4 µg/mL; MIC (E. coli 13352; E. coli 13352): 8 µg/mL; MIC (E. coli M 49; E. coli M 49): 4 µg/mL; MIC (E. coli 13351; E. coli 13351): 4 µg/mL; MIC (E. coli M 50; E. coli M 50): 8 µg/mL; MIC (P. mirabilis S 137B): >32 µg/mL
